Target: Intermediate conductance calcium-activated potassium channel protein 4 (Homo sapiens, UniProt O15554)
Assay: Inhibition Assay: Human HEK293 cells over-expressing human IK are grown in culture medium (DMEM supplemented with 10% foetal bovine serum), in polystyrene culture flasks ([…]) in a humidified atmosphere of 5% CO2 in air, at 37° C. Cell confluence should be 80-90% on day of plating. Cells are rinsed with 4 mL of PBS (phosphate buffered saline) and incubated 2 min with 1 mL of Trypsin-EDTA. After addition of 25 mL of culture medium cells are re-suspended by trituration with a 25 mL pipette.The cells are seeded at a density of 3×10^6 cells/mL (25 μL/well) in black-walled, clear bottom, 384-well plates pre-treated with 0.01 g/L poly-D-lysin (20 μL/well for ≧30 min). Plated cells were allowed to proliferate for 24 h before loading with dye.BTC-AM ([…], Invitrogen) is added 25.5 μl DMSO. The BTC-AM stock solution (2 mM) is diluted to a final concentration of 2 μM in Cl+ free assay buffer (in mM: 140 Na+-gluconate, 2.5 K+-gluconate, 6 Ca2+-gluconate, 1 Mg2+ gluconate, 5 glucose, 10 HEPES, pH 7.3) containing 2 μM ouabain, 2 mM amaranth and 1 mM tartrazine.The culture medium is aspirated from the wells, and 25 μl of the BTC-AM loading solution are added to each well. The cells are incubated at 37° C. for 60 min.After the loading period, the Tl+-sensitive BTC fluorescence signal is measured over time using a FLIPR.

Chain of Intermediate conductance calcium-activated potassium channel protein 4 (O15554 whole entry): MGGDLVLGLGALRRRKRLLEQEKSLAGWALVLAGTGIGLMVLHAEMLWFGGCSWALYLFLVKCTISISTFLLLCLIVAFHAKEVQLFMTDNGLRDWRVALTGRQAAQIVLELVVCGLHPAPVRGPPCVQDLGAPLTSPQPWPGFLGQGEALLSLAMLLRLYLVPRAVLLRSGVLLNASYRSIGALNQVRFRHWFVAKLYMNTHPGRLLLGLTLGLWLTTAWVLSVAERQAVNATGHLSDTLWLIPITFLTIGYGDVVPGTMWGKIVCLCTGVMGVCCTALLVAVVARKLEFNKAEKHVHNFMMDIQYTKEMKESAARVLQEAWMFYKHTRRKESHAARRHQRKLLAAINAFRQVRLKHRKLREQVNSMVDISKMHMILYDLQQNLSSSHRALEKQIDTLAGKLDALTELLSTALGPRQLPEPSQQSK

IC50: 680 nM
Structure (SMILES): COCCNc1ccccc1-c1ccccc1-c1nnnn1-c1ccccc1F
